Laboratory results as given in patent publication US7407958B2, “2-pyridyl substituted imidazoles as ALK5 and/or ALK4 inhibitors” (SK Chemicals Co., Ltd., priority 2004, dated 2008).

How the values were obtained:
Ca^2+/Calmodulin-Dep. II = experiment: Protein kinase activity in vitro; assay type: biochemical
Cdk1/Cyclin B = Cdk1/Cyclin B (Homo sapiens, UniProt P06493); experiment: Protein kinase activity in vitro; assay type: biochemical
Cdk2/Cyclin A = Cdk2/Cyclin A (Homo sapiens, UniProt P24941); experiment: Protein kinase activity in vitro; assay type: biochemical
Cdk5/p35 = Cdk5/p35 (Homo sapiens, UniProt Q00535); experiment: Protein kinase activity in vitro; assay type: biochemical
CHK1 = CHK1 (Homo sapiens, UniProt O14757); experiment: Protein kinase activity in vitro; assay type: biochemical
CHK2 = CHK2 (Homo sapiens, UniProt O96017); experiment: Protein kinase activity in vitro; assay type: biochemical
EGF Receptor = EGF Receptor (Homo sapiens, UniProt P00533); experiment: Protein kinase activity in vitro; assay type: biochemical
ERK1 = ERK1 (Homo sapiens, UniProt P27361); experiment: Protein kinase activity in vitro; assay type: biochemical
GSK-3β = GSK-3β (Homo sapiens, UniProt P49841); experiment: Protein kinase activity in vitro; assay type: biochemical
HER2 receptor = HER2 receptor (Homo sapiens, UniProt P04626); experiment: Protein kinase activity in vitro; assay type: biochemical
HER2 receptor, sequence (P04626 23-1255): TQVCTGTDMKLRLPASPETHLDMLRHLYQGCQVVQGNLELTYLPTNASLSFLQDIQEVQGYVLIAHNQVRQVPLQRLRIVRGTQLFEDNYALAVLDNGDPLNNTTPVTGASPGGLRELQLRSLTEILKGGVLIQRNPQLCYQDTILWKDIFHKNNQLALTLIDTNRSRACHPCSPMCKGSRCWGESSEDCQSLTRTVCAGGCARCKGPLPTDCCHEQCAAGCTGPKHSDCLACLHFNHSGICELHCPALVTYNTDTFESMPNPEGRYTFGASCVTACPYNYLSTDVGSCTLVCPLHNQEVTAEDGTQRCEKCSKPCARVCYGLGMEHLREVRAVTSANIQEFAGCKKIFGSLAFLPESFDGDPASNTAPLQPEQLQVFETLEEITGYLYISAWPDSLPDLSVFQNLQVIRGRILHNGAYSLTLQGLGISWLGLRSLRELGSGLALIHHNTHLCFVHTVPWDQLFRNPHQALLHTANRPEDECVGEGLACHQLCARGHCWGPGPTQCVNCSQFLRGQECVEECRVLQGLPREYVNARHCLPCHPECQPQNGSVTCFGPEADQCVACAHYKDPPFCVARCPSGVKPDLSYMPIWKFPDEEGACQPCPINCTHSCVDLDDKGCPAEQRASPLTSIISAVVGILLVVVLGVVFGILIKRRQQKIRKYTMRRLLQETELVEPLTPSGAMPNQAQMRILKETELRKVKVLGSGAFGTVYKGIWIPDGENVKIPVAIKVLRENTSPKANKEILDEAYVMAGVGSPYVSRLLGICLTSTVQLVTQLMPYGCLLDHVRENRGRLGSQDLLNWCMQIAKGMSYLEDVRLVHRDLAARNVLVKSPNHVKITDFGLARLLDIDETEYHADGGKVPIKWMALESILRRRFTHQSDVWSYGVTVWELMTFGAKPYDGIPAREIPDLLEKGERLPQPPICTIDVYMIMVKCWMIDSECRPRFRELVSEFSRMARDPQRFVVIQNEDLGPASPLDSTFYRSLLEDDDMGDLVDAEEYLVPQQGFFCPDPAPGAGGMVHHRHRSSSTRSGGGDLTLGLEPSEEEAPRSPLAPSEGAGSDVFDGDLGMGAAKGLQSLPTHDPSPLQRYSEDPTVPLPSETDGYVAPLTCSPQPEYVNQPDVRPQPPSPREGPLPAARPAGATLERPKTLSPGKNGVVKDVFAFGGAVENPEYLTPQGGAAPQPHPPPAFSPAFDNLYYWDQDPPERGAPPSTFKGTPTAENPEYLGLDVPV

IKK-1 = IKK-1 (Homo sapiens, UniProt O15111); experiment: Protein kinase activity in vitro; assay type: biochemical
IKK-2 = IKK-2 (Homo sapiens, UniProt O14920); experiment: Protein kinase activity in vitro; assay type: biochemical
Insulin receptor = Insulin receptor (Homo sapiens, UniProt P06213); experiment: Protein kinase activity in vitro; assay type: biochemical
JNK1α1 = JNK1α1 (Homo sapiens, UniProt P45983); experiment: Protein kinase activity in vitro; assay type: biochemical
JNK2α2 = JNK2α2 (Homo sapiens, UniProt P45984); experiment: Protein kinase activity in vitro; assay type: biochemical
JNK2α2, sequence (P45984 whole entry): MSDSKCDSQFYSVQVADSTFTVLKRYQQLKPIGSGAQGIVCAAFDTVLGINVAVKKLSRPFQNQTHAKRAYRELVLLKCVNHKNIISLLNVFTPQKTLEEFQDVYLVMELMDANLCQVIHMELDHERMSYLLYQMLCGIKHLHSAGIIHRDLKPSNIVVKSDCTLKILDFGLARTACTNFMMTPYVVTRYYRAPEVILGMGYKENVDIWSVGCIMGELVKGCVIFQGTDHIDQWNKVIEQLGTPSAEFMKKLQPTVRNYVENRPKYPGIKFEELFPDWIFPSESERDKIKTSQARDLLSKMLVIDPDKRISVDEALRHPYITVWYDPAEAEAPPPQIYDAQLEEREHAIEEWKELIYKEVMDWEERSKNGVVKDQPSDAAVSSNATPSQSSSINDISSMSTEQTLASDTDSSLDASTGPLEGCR

Lck = Lck (Homo sapiens, UniProt P06239); experiment: Protein kinase activity in vitro; assay type: biochemical
Lck, sequence (P06239 whole entry, species assumed): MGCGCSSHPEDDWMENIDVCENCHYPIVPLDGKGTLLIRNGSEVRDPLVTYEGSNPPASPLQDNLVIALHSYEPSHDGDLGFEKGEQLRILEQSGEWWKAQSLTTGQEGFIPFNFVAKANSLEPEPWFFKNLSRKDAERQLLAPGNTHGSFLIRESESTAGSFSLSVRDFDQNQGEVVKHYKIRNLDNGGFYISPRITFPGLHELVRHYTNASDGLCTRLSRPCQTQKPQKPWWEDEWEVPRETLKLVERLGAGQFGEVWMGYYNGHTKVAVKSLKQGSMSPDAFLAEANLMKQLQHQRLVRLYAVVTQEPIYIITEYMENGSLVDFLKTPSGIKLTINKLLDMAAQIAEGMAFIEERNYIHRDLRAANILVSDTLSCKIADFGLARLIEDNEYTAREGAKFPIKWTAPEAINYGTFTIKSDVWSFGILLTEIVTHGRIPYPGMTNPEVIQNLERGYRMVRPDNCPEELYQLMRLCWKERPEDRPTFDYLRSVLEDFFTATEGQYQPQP

Lyn A = Lyn A (Homo sapiens, UniProt P07948); experiment: Protein kinase activity in vitro; assay type: biochemical; conditions: 10 μM (two lines printed)
Lyn A, sequence (P07948 whole entry, species assumed): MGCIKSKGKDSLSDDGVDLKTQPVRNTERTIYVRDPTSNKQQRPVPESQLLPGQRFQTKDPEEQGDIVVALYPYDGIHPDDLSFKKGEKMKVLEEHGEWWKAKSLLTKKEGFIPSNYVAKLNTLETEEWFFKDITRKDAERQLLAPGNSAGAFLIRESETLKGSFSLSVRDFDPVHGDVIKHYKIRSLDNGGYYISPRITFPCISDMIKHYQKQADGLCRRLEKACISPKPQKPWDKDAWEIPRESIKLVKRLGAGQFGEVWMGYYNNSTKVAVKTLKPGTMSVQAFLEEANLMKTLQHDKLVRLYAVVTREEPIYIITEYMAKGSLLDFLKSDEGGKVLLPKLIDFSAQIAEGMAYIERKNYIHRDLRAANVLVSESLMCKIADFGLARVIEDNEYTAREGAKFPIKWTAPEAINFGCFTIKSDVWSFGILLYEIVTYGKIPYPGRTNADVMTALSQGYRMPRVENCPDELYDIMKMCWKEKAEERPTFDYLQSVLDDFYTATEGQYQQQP

MEK1 = MEK1 (Homo sapiens, UniProt Q02750); experiment: Protein kinase activity in vitro; assay type: biochemical
MEK1, sequence (Q02750 whole entry, species assumed): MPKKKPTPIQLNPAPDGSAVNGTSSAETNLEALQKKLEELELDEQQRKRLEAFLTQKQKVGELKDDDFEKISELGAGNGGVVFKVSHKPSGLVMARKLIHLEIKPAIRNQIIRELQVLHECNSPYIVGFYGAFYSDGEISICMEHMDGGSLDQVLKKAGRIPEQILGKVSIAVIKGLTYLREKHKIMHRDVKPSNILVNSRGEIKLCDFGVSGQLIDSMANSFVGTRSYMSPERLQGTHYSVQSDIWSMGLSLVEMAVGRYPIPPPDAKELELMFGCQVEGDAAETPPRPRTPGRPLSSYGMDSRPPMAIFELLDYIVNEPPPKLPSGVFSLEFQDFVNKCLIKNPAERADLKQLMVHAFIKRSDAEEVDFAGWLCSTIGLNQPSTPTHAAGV

p38α = p38α (Homo sapiens, UniProt Q16539); experiment: Protein kinase activity in vitro; assay type: biochemical
p38α, sequence (Q16539 whole entry): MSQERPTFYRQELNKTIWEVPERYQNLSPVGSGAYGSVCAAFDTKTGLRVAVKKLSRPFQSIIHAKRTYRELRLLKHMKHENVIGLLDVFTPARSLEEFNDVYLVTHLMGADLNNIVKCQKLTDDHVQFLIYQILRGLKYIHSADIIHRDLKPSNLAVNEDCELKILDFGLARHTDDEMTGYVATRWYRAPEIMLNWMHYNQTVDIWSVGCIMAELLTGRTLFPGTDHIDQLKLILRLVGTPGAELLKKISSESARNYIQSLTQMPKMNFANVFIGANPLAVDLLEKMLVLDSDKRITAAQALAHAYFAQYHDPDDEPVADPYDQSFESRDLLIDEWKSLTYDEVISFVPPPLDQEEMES

p38β = p38β (Homo sapiens, UniProt Q15759); experiment: Protein kinase activity in vitro; assay type: biochemical
p38β, sequence (Q15759 whole entry): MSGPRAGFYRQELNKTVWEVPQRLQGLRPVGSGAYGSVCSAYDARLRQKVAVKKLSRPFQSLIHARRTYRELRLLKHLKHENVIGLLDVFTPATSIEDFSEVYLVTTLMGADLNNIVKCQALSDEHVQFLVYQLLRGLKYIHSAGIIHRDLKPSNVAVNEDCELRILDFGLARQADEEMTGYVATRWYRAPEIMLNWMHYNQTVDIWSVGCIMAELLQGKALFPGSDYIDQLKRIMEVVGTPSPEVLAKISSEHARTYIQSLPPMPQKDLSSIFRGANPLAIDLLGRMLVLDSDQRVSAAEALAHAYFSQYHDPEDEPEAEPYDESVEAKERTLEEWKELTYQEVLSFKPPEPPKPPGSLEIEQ

p38δ = p38δ (Homo sapiens, UniProt O15264); experiment: Protein kinase activity in vitro; assay type: biochemical
p38γ = p38γ (Homo sapiens, UniProt P53778); experiment: Protein kinase activity in vitro; assay type: biochemical
p70^56k = p70^56k (Homo sapiens, UniProt P23443); experiment: Protein kinase activity in vitro; assay type: biochemical
PDK1 = PDK1 (Homo sapiens, UniProt O15530); experiment: Protein kinase activity in vitro; assay type: biochemical
PKA, non-selective = experiment: Protein kinase activity in vitro; assay type: biochemical
PKBα/Akt1 = PKBα/Akt1 (Homo sapiens, UniProt P31749); experiment: Protein kinase activity in vitro; assay type: biochemical
PKCα = PKCα (Homo sapiens, UniProt P17252); experiment: Protein kinase activity in vitro; assay type: biochemical
PKCβ1 = PKCβ1 (Homo sapiens, UniProt P05771); experiment: Protein kinase activity in vitro; assay type: biochemical
PKCβ2 = PKCβ2 (Homo sapiens, UniProt P05771); experiment: Protein kinase activity in vitro; assay type: biochemical
PKCδ = PKCδ (Homo sapiens, UniProt Q05655); experiment: Protein kinase activity in vitro; assay type: biochemical
PKCε = PKCε (Homo sapiens, UniProt Q02156); experiment: Protein kinase activity in vitro; assay type: biochemical
PKCγ = PKCγ (Homo sapiens, UniProt P05129); experiment: Protein kinase activity in vitro; assay type: biochemical
PKCη = PKCη (Homo sapiens, UniProt P24723); experiment: Protein kinase activity in vitro; assay type: biochemical
PKCμ = PKCμ (Homo sapiens, UniProt Q15139); experiment: Protein kinase activity in vitro; assay type: biochemical
PKCμ, sequence (Q15139 whole entry): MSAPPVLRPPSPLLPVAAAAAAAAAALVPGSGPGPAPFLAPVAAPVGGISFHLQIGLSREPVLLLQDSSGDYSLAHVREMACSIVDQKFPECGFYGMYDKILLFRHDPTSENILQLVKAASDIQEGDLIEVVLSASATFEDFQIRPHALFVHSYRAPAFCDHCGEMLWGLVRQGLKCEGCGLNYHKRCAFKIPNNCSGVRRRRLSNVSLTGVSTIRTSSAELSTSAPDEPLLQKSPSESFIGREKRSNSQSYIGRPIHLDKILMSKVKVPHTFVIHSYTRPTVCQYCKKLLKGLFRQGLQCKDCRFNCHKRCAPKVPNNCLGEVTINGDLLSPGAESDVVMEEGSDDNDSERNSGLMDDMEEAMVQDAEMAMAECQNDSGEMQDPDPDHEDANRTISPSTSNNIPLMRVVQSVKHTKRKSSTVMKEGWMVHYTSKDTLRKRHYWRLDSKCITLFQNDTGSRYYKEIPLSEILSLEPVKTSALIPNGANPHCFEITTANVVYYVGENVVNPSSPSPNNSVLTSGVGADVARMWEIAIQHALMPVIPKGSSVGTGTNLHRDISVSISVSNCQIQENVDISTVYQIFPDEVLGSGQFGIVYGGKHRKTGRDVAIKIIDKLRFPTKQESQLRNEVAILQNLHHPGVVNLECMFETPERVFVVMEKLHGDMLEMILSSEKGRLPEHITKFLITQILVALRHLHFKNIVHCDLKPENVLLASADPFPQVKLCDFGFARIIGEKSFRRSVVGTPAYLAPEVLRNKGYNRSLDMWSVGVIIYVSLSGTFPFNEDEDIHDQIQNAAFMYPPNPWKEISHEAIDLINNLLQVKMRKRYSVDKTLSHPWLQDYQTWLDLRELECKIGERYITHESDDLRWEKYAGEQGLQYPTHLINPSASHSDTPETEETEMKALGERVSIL

PKCζ = PKCζ (Homo sapiens, UniProt Q05513); experiment: Protein kinase activity in vitro; assay type: biochemical
pp60^C-SRC = pp60^C-SRC (Homo sapiens, UniProt P12931); experiment: Protein kinase activity in vitro; assay type: biochemical
ALK5 = ALK5 (Homo sapiens, UniProt P36897, T204D); experiment: biochemical
Method: The His-tagged, constitutively active ALK5 (T204D) and Smad3 full protein were expressed in insect cells using the Invitrogen BacNBlue baculovirus expression system. Expressed proteins were purified with Qiagen Ni-NTA resin column. The purified smad3 protein 200 ng was mixed with 100 μL of 0.1 M sodium bicarbonate coating buffer and coated into Flash-Plates by pipetting. Plates were covered and incubated at 4° C. for 16 hours. Then the plates were washed 3 times with 200 μL of coating buffer and allowed to block in 1% BSA in PBS at room temperature for 1 hour. The purified ALK5 protein 100 ng was mixed with 100 μL of reaction buffer containing 20 mM Tris-HCl (pH 7.4), 5 mM MgCl2, 1 mM CaCl2, 1 mM DTT, 1 μM ATP and 2 μCi ?-^32p-ATP, and 1 μL of each test compound of formula (I) prepared in 100% DMSO solution at different concentrations. The assay was then initiated with the addition of ALK5 reaction mixture into Smad3-coated Flash-Plates, followed by incubation at 30° C. for 3 hours. After incubation, the assay buffer was removed and washed 3 times with 200 μL of 10 mM sodium pyrophosphate solution. Then, the Flash-Plates were air-dried and counted on a Packard TopCount.

% inhibition at 10 μM (Ca^2+/Calmodulin-Dep. II): 1% | inhibition at 10 µM (Cdk1/Cyclin B): -3% | inhibition at 10 µM (Cdk2/Cyclin A): 6% | inhibition at 10 µM (Cdk5/p35): -2% | inhibition at 10 µM (CHK1): 10% | inhibition at 10 µM (CHK2): 18% | inhibition at 10 µM (EGF Receptor): 2% | inhibition at 10 µM (ERK1): 51% | inhibition at 10 µM (GSK-3β): 21% | inhibition at 10 µM (HER2 receptor): 11% | inhibition at 10 µM (IKK-1): 2% | inhibition at 10 µM (IKK-2): 1% | inhibition at 10 µM (Insulin receptor): 15% | inhibition at 10 µM (JNK1α1): 11% | inhibition at 1 µM (JNK2α2; 1 μM): 40% | inhibition at 10 µM (JNK2α2; 10 μM): 81% | inhibition at 10 µM (Lck): 17% | inhibition at 10 µM (Lyn A): 37% | % inhibition at 10 μM (Lyn A; 10 µM): 42% | inhibition at 1 µM (MEK1; 1 μM): 4% | inhibition at 10 µM (MEK1; 10 μM): 66% | inhibition at 1 µM (p38α; 1 μM): 25% | inhibition at 10 µM (p38α; 10 μM): 76% | inhibition at 10 µM (p38β): 48% | inhibition at 10 µM (p38δ): -19% | inhibition at 10 µM (p38γ): 15% | inhibition at 10 µM (p70^56k): -3% | inhibition at 10 µM (PDK1): 3% | % inhibition at 10 μM (PKA, non-selective): 27% | inhibition at 10 µM (PKBα/Akt1): 17% | inhibition at 10 µM (PKCα): -6% | inhibition at 10 µM (PKCβ1): 10% | inhibition at 10 µM (PKCβ2): -2% | inhibition at 10 µM (PKCδ): 3% | inhibition at 10 µM (PKCε): 1% | inhibition at 10 µM (PKCγ): 3% | inhibition at 10 µM (PKCη): -6% | inhibition at 1 µM (PKCμ; 1 μM): 31% | inhibition at 10 µM (PKCμ; 10 μM): 64% | inhibition at 10 µM (PKCζ): -9% | inhibition at 10 µM (pp60^C-SRC): -3% | IC50 (ALK5): 5.3 nM
Structure (SMILES): Cc1cccc(-c2[nH]c(Cc3cccc(C(N)=O)c3)nc2-c2ccc3nccnc3c2)n1 [Example 41, 3-((5-(6-methylpyridin-2-yl)-4-(quinoxalin-6-yl)-1(3)H-imidazol-2-yl)methyl)benzamide]
